{
  "source": "patent US20250345340A1",
  "about": "“METHODS FOR THE PREVENTION AND TREATEMENT OF POST-OPERATIVE ABDOMINAL ADHESIONS” (UNIVERSITY OF ROCHESTER, priority 2024, published 2025)",
  "key": {"[1]": {"tested_on": "post-operative abdominal adhesions", "test": "Murine abdominal adhesion surgery model (cecum and abdominal wall abrasion, silk sutures, starch)", "type": "in vivo, C57Bl/6J mice", "text": "Murine Abdominal Adhesion Surgery: Mature adult (16-20-week-old) C57Bl/6J male and female mice underwent abdominal surgery to induce adhesions consistent with those observed postoperatively in clinical settings. Briefly, following sedation, a vertical midline laparotomy incision, extending from the xyphoid process to just above the bladder (˜4 cm), is made through the abdominal skin and musculature. The cecum is identified and eviscerated, followed by gentle abrasion with sterile 100-grit sandpaper for 30-60 seconds. Hemostasis is ensured and the cecum is then returned to the abdominal cavity. The abdominal wall is then abraded with sterile 100-grit sandpaper, followed by placement of two-four 4-0 silk sutures, which are placed into the abdominal wall. The intestines are then irrigated with warmed sterile saline, and hemostasis is confirmed. A small pinch of sterile autoclaved rice starch is then sprinkled on the cecum and abdominal sidewall. The laparotomy is closed with absorbable, interrupted sutures used to reapproximate the fascia and followed by sutures to close the skin. The skin is closed with skin adhesive.\nScoring of gross adhesion formation: At time of harvest, digital photographic images will be taken of the abdominal cavity of each mouse, with images standardized to a lateral reflection of abdominal wall prior to manipulation of intra-abdominal contents. These images are then curated in a Research Electronic Data Capture (RedCap)-based survey for blinded scoring. Adhesions are scored from 0-5: with ‘0’ indicating no adhesions; 1: a single thin, filmy adhesion; 2: more than one filmy adhesion; 3: one thick adhesion with focal attachment (+thin filmy adhesions); 4: one thick adhesion with broad planar attachment (+thin filmy adhesions); and 5: >1 thick adhesion with broad planar attachment, or >1 thick vascular adhesion with planar attachment (+thin filmy adhesions). Images are scored by at least 5 surgeons trained on the scoring process, with the mean of these scores reported for each mouse.\nHistological assessment of adhesions and ileal smooth muscle hypertrophy: Following digital image capture, the area of adhesion between the abdominal wall and bowel (or other organs), including any bowel: bowel adhesions is isolated, fixed in 10% neutral buffered formalin, and processed for paraffin histology. In cases of adhesion absence, the abdominal wall and cecum are harvested and sectioned separately. Five-micron transverse sections are cut through the tissue. To ensure accurate quantification of adhesions, tissue sections are collected through multiple depths through the tissue. […] Adhesion extent (length and cross-sectional area) along both the abdominal wall/cecal surface and between organs are quantified from H&E images by ≥2 blinded observers. […]\nAt harvest, the study took pictures of the peritoneal cavity, which were scored by 4 blinded, board certified surgeons adhesion scores ranged from 0 (none) to 5 (dense, vascular, adhesions).\nThe study chose the area of highest visible fibrosis and adhesion density. […] Adhesions were then measured in micrometers. Length of adhesions between the bowel to abdominal wall and bowel to bowel were measured. The total adhesion density (excluding abdominal wall fibrosis) was then measured by cross section. […]"}, "lung fibroblasts": {"tested_on": "lung fibroblasts", "conditions": "cited from earlier work"}},
  "note": "Entries after “also recorded” stand apart in the source; their conditions may differ.",
  "data": [
    {"smiles": "Nc1nc(NCc2ccccc2)nc(-c2ccccc2CO)n1", "note": "[ogerin]", "values": [
      {"measurement": "length of adhesions between the bowel and abdominal wall and bowel to bowel", "setting": "[1]; histology, POD10, vs control", "value": "reduction in length of adhesions"},
      {"measurement": "overall adhesion cross section (total adhesion burden by area)", "setting": "[1]; histology, POD10, vs control", "value": "significantly lower; also recorded: reduces total adhesion burden"},
      {"measurement": "clinical adhesion score (0-5, blinded surgeons)", "setting": "[1]; ogerin injected POD 0-5, harvest POD10, vs vehicle", "value": "reduces clinical adhesion score; also recorded: significantly lower"},
      {"measurement": "adhesion formation (gross)", "setting": "[1]; ogerin injected POD 0-5, harvest POD10, vs vehicle DMSO:Saline 60:40", "value": "blunts adhesion formation; also recorded: substantial decrease in adhesion formation"},
      {"measurement": "mice demonstrating a complete lack of adhesion formation", "setting": "[1]; ogerin injected POD 0-5, harvest POD10, all vehicle mice formed robust adhesions", "value": "3 out of 4"},
      {"measurement": "TGF-b-induced myofibroblast differentiation", "setting": "lung fibroblasts", "value": "blunts"},
      {"measurement": "reversion to a basal fibroblast phenotype following TGF-β-induced myofibroblast differentiation", "setting": "lung fibroblasts", "value": "can promote reversion"}
    ]}
  ]
}
